# Values joined by “and” are separate entries in the source; they are usually repeats but may differ in a detail not shown here. Equal entries are not always repeated. “Also recorded” adds a separate entry of the source. Where two headings read alike, the source gives them in different places. Marks after values point to notes of the source that are not given here.
# Experiment: Pharmacokinetics of SR13668 in monkeys after i.v. and oral gavage dosing
# Assay type: in vivo, cynomolgus monkeys (macaca fasicularis)
# Settings: for Fabs F/(1-ER): blood; for Vd/F: read-out: VZ/F
# Description: Four non-naïve male beagle dogs (approximately 3 years of age; Ridglan Farms Inc. Mt. Horeb, Wis.) and four non-naïve male cynomolgus monkeys [cynos (macaca fasicularis); approximately 7 to 8 years of age; Charles River Laboratories, Inc., Houston, Tex.] were used in this study. Prior to experimental initiation for the present study, the attending veterinarian certified that the animals were healthy and free from disease and parasites.
# For both species, each animal was part of each experimental group, with a 7-day interval between treatments to allow for washout of the dosing formulation and its effects. Dosing formulations of SR13668 were administered by oral gavage (intragastric) or intravenous (i.v.) injection as a single dose or once daily for seven consecutive days. Oral to doses were administered at a dosing volume of 5 mL/kg of body weight, while intravenous doses were administered at a dosing volume of 0.5 mL/kg of body weight. Dogs were dosed with 93.6 mg/m^2 SR13668 intravenously in DMSO:PEG300 15:85 (v/v) or orally in Solutol® vehicle (two groups, fed and after an overnight fast). Monkeys were dosed with 84.2 mg/m^2 SR13668 intravenously in DMSO:PEG300 15:85 (v/v) or orally (336.7 mg/m^2 SR13668 for the oral high dose group) in PEG400:Labrasol® 1:1 (v/v) or Solutol® vehicles. Vehicle control groups were used to assess the tolerability of the vehicle and for clinical pathology evaluations.
# Blood samples were collected from each animal at 10 time points (0, 0.25, 0.5, 1, 2, 4, 6, 8, 12 and 24 hours post-dose) during the first and last 24-hour segment of each dosing regimen. For single intravenous dose experiments, samples were collected during the 24-hour post-dose period only. Samples were transferred to Vacutainer tubes containing ethylenediaminetetraacetic acid (EDTA; Fisher Scientific, Pittsburgh, Pa.). The tubes were inverted several times to mix and then placed on ice until storage or centrifugation for plasma preparation. After centrifugation, the plasma was transferred into storage tubes (0.5 mL), which were placed on dry ice and then stored frozen (approximately −70° C.).
# Levels of SR13668 in plasma and blood were measured using a tandem mass to spectrometer (API 3000; Applied Biosystems/MDS Sciex, Foster City, Calif.) equipped with a high performance liquid chromatograph (Agilent 1200; Agilent Technologies, Wilmington, Del.). For SR13668 determination, a 100 μL blood or plasma aliquot was mixed with 1 mL of acetonitrile (ACN; Sigma-Aldrich, St. Louis, Mo.). After vortex-mixing for one minute, the sample was centrifuged at 4° C. and 7000 RPM for 10 minutes to remove precipitated proteins, and the supernatant was transferred to a clean tube and dried under nitrogen flow at room temperature (approximately 25° C.). After the evaporation was completed, the residue was reconstituted in 500 μL of ACN/water (v/v 70:30), and vortex-mixed and centrifuged again. An aliquot of the resulting supernatant was transferred to an autosampler tube for instrumental analysis.
# A freshly prepared SR13668 standard curve was analyzed along with samples on each day of analysis. The chromatographic column was a Luna 3μ C18(2) 110 Å 30×2.0 mm (Phenomenex, Torrance, Calif.). The column temperature was maintained at 25° C., and a flow rate of 0.30 mL/min was used. The mobile phase consisted of MPA: formic acid in water (0.05%, v/v) and MPB: formic acid in ACN (0.05%, v/v). The mobile phase gradient was as follows: after injection, initial conditions with MPA at 40% were held for 0.01 min, decreased to 5% and held constant for 3 min, returning to initial conditions for another 3 min of re-equilibration time. Retention time of SR13668 was approximately 2.4 min. Total run time was 6 min. A turbo ion spray interface was used as the ion source operating in negative ion mode. Acquisition was performed in multiple reaction monitoring mode using ions 429.15 (Q1) and 414.12 (Q3) Dalton. […]
# [1] = male, cynomolgus monkey, plasma, iv, 7.02 mg/kg, plasma, 84.2 mg/m^2 (7.02 mg/kg) i.v. single dose, DMSO:PEG300 15:85 v/v, fed
# [2] = male, cynomolgus monkey, plasma, po, 7.02 mg/kg, 84.2 mg/m^2 (7.02 mg/kg) oral gavage, Solutol, seventh daily dose, fed
# [3] = male, cynomolgus monkey, plasma, po, 7.02 mg/kg, plasma, 84.2 mg/m^2 (7.02 mg/kg) oral gavage, PEG400:Labrasol 1:1 v/v, seventh daily dose, fed
# [4] = male, cynomolgus monkey, plasma, po, 28.06 mg/kg, plasma, 336.7 mg/m^2 (28.06 mg/kg) oral gavage, PEG400:Labrasol 1:1 v/v, seventh daily dose, fed
# [5] = male, cynomolgus monkey, whole blood, iv, 7.02 mg/kg, whole blood, 84.2 mg/m^2 (7.02 mg/kg) iv single dose, DMSO:PEG300 15:85 v/v, fed
# [6] = male, cynomolgus monkey, whole blood, po, 7.02 mg/kg, 84.2 mg/m^2 (7.02 mg/kg) oral gavage, Solutol, seventh daily dose, fed
# [7] = male, cynomolgus monkey, whole blood, po, 7.02 mg/kg, whole blood, 84.2 mg/m^2 (7.02 mg/kg) oral gavage, PEG400:Labrasol 1:1 v/v, seventh daily dose, fed
# [8] = male, cynomolgus monkey, whole blood, po, 28.06 mg/kg, whole blood, 336.7 mg/m^2 (28.06 mg/kg) oral gavage, PEG400:Labrasol 1:1 v/v, seventh daily dose, fed
# [9] = male, cynomolgus, cynomolgus monkey, plasma, iv, 7.02 mg/kg, plasma, 84.2 mg/m^2 (7.02 mg/kg) i.v. single dose, DMSO:PEG300 15:85 v/v, fed
# [10] = male, cynomolgus, cynomolgus monkey, plasma, po, 7.02 mg/kg, plasma, 84.2 mg/m^2 (7.02 mg/kg) oral gavage, PEG400:Labrasol 1:1 v/v, seventh daily dose, fed
# [11] = plasma, 84.2 mg/m^2 (7.02 mg/kg) i.v. single dose, DMSO:PEG300 15:85 v/v, fed
# [12] = whole blood, 84.2 mg/m^2 (7.02 mg/kg) iv single dose, DMSO:PEG300 15:85 v/v, fed
compound,measurement,setting,value
"CCOC(=O)c1ccc2[nH]c3c(OC)c4[nH]c5ccc(C(=O)OCC)cc5c4cc3c2c1 [SR13668, 2,10-dicarbethoxy-6-methoxy-5,7-dihydro-indolo-(2,3-b)carbazole]",effect of fourfold dose increase on oral bioavailability,"PEG400:Labrasol, 84.2 vs 336.7 mg/m^2",about a fourfold decrease in the bioavailability; also recorded: lower oral bioavailability
same,CL,"blood clearance, 84.2 mg/m^2 (7.02 mg/kg) oral gavage, PEG400:Labrasol 1:1 v/v, fed",121 mL/min/kg
same,CL,"blood clearance, 84.2 mg/m^2 (7.02 mg/kg) oral gavage, Solutol, fed",47.7 mL/min/kg
same,CL,"blood clearance, 336.7 mg/m^2 (28.06 mg/kg) oral gavage, PEG400:Labrasol 1:1 v/v, fed",332 mL/min/kg
same,Fabs F/(1-ER),"84.2 mg/m^2 (7.02 mg/kg) oral gavage, PEG400:Labrasol 1:1 v/v, fed",4.1%
same,Fabs F/(1-ER),"84.2 mg/m^2 (7.02 mg/kg) oral gavage, Solutol, fed",9.1%
same,Fabs F/(1-ER),"336.7 mg/m^2 (28.06 mg/kg) oral gavage, PEG400:Labrasol 1:1 v/v, fed",1.2%
same,ER CLiv/Q,iv blood clearance over hepatic blood flow 43.6 mL/min/kg,0.083
same,AUC(0-inf),[1],13300 ± 4920 ng·h/mL
same,Cmax,[1],6090 ± 1080 ng/mL
same,MRT,[1],6.9 ± 1.1 h
same,AUC(0-inf),[2],837 ± 144 ng·h/mL
same,Cmax,[2],71.4 ± 16 ng/mL
same,MRT,[2],12.8 ± 2.1 h
same,Tmax,[2],8 ± 3.3 h
same,AUC(0-inf),[3],437 ± 312 ng·h/mL
same,Cmax,[3],40.5 ± 38 ng/mL
same,MRT,[3],11.6 ± 1.3 h
same,CL/F,"male, cynomolgus monkey, plasma, po, 7.02 mg/kg, plasma, 84.2 mg/m^2 (7.02 mg/kg) oral gavage, PEG400:Labrasol 1:1 v/v, seventh daily dose, fed, read-out: CL/F (converted)",372 mL/min/kg
same,Vd/F,[3],203 ± 130 L/kg
same,CL/F,"male, cynomolgus monkey, plasma, po, 7.02 mg/kg, plasma, 84.2 mg/m^2 (7.02 mg/kg) oral gavage, Solutol, seventh daily dose, fed, read-out: CL/F (converted)",143 mL/min/kg
same,Vd/F,"male, cynomolgus monkey, plasma, po, 7.02 mg/kg, plasma, 84.2 mg/m^2 (7.02 mg/kg) oral gavage, Solutol, seventh daily dose, fed",90.5 ± 9.9 L/kg
same,AUC(0-inf),[4],367 ± 154 ng·h/mL
same,Cmax,[4],43.7 ± 9.2 ng/mL
same,MRT,[4],9.1 ± 2.4 h
same,Tmax,[4],3.5 ± 1.9 h
same,CL/F,"male, cynomolgus monkey, plasma, po, 28.06 mg/kg, plasma, 336.7 mg/m^2 (28.06 mg/kg) oral gavage, PEG400:Labrasol 1:1 v/v, seventh daily dose, fed, read-out: CL/F (converted)",1440 mL/min/kg
same,Vd/F,[4],603 ± 236 L/kg
same,AUC(0-inf),[5],35400 ± 12400 ng·h/mL
same,Cmax,[5],11100 ± 776 ng/mL
same,MRT,[5],9 ± 2.2 h
same,Tmax,[5],0.25 h
same,half-life,[5],8.6 ± 1.7 h
same,AUC(0-inf),[6],2490 ± 377 ng·h/mL
same,Cmax,[6],227 ± 56 ng/mL
same,MRT,[6],13.3 ± 1.1 h
same,Tmax,[6],6.5 ± 3.8 h
same,half-life,[6],7.7 ± 0.6 h
same,AUC(0-inf),[7],1560 ± 1330 ng·h/mL
same,Cmax,[7],129 ± 140 ng/mL
same,MRT,[7],11.5 ± 1.2 h
same,Tmax,[7],7 ± 0.35 h
same,half-life,[7],5.8 ± 0.9 h
same,CL/F,"male, cynomolgus monkey, whole blood, po, 7.02 mg/kg, whole blood, 84.2 mg/m^2 (7.02 mg/kg) oral gavage, PEG400:Labrasol 1:1 v/v, seventh daily dose, fed, read-out: CL/F (converted)",121 mL/min/kg
same,Vd/F,[7],61.4 ± 44 L/kg
same,CL/F,"male, cynomolgus monkey, whole blood, po, 7.02 mg/kg, whole blood, 84.2 mg/m^2 (7.02 mg/kg) oral gavage, Solutol, seventh daily dose, fed, read-out: CL/F (converted)",47.7 mL/min/kg
same,Vd/F,"male, cynomolgus monkey, whole blood, po, 7.02 mg/kg, whole blood, 84.2 mg/m^2 (7.02 mg/kg) oral gavage, Solutol, seventh daily dose, fed",31.6 ± 5 L/kg
same,AUC(0-inf),[8],1520 ± 445 ng·h/mL
same,Cmax,[8],168 ± 35 ng/mL
same,MRT,[8],10.9 ± 2.2 h
same,Tmax,[8],3.5 ± 1.9 h
same,half-life,[8],6.8 ± 1.2 h
same,CL/F,"male, cynomolgus monkey, whole blood, po, 28.06 mg/kg, whole blood, 336.7 mg/m^2 (28.06 mg/kg) oral gavage, PEG400:Labrasol 1:1 v/v, seventh daily dose, fed, read-out: CL/F (converted)",332 mL/min/kg
same,Vd/F,[8],195 ± 73 L/kg
same,Tmax,[9],0.25 h
same,half-life,[9],7.6 ± 0.8 h
same,half-life,"male, cynomolgus, cynomolgus monkey, plasma, po, 7.02 mg/kg, 84.2 mg/m^2 (7.02 mg/kg) oral gavage, Solutol, seventh daily dose, fed",7.4 ± 0.7 h
same,Tmax,[10],5 ± 1.2 h
same,half-life,[10],6 ± 1.3 h
same,half-life,"male, cynomolgus, cynomolgus monkey, plasma, po, 28.06 mg/kg, plasma, 336.7 mg/m^2 (28.06 mg/kg) oral gavage, PEG400:Labrasol 1:1 v/v, seventh daily dose, fed",5 ± 1.2 h
same,clearance,"male, cynomolgus, cynomolgus monkey, whole blood, blood clearance, 84.2 mg/m^2 (7.02 mg/kg) iv, DMSO:PEG300 15:85 v/v, fed",3.63 mL/min/kg
same,CL/F,[11],"0.580 ± 0.20^c,d L/hr/kg"
same,F0-∞,[11],100%
same,F0-∞,"plasma, 84.2 mg/m^2 (7.02 mg/kg) oral gavage, PEG400:Labrasol 1:1 v/v, seventh daily dose, fed",3.3 ± 2.0^f %
same,F0-∞,"plasma, 84.2 mg/m^2 (7.02 mg/kg) oral gavage, Solutol, seventh daily dose, fed",7.3 ± 2.9^i %
same,F0-∞,"plasma, 336.7 mg/m^2 (28.06 mg/kg) oral gavage, PEG400:Labrasol 1:1 v/v, seventh daily dose, fed",0.72 ± 0.28^i %
same,CL/F,[12],"0.218 ± 0.078^c,d,h L/hr/kg"
same,F0-∞,[12],100%
same,F0-∞,"whole blood, 84.2 mg/m^2 (7.02 mg/kg) oral gavage, PEG400:Labrasol 1:1 v/v, seventh daily dose, fed","3.8 ± 3.1^e,h % and 3.8%"
same,F0-∞,"whole blood, 84.2 mg/m^2 (7.02 mg/kg) oral gavage, Solutol, seventh daily dose, fed","8.3 ± 3.1^e,h,i % and 8.3%"
same,F0-∞,"whole blood, 336.7 mg/m^2 (28.06 mg/kg) oral gavage, PEG400:Labrasol 1:1 v/v, seventh daily dose, fed",1.1 ± 0.44^h % and 1.1%

# — patent US20120184590A1, “FORMULATIONS OF INDOLE-3-CARBINOL DERIVED ANTITUMOR AGENTS WITH INCREASED ORAL BIOAVAILABILITY” (UNIVERSITY OF KANSAS, priority 2009, published 2012)
